Data reported in article PMC12677844, “Profiling Inhibitor Scaffolds for the Cancer Target Jumonji‐C Domain‐Containing Protein 6” (Chemmedchem, 2025).
Several values for one entry are separate records, joined by “and”; a condition that tells them apart may be missing. Equal values may be shown once. Read-outs that look alike come from different tables or passages of the source.

Tests used:
[1] = system: JMJD6; set-up: method as in earlier work; details: 10 µM JMJD6, 100 µM LUC7L2_267–278; ref [22]; read-out: reported IC50 (JMJD6, LC–MS) (converted); cited from earlier work
[2] = target: T1, full‐length His6‐JMJD6 (Homo sapiens, UniProt Q6NYC1); assay: JMJD6 SPE–MS inhibition assay (BRD4_511–550 hydroxylation); type: biochemical; details: for IC50: His6‐JMJD6 0.05 µM, 2OG 100 µM, FAS 2 µM, BRD4_511–550 1 µM, L‐ascorbic acid 100 µM, means of two independent runs (mean ± SD)
T1 construct: Isolated recombinant full‐length human JMJD6 with a N‐terminal His6‐tag; made in house; host or cells: Escherichia coli BL21 (DE3)
Experimental: Co‐substrate concentrations were chosen based on reported SPE–MS kinetic parameters for the JMJD6‐catalyzed BRD4_511–550 monohydroxylation reaction.^[ [56] ^] […] Since JMJD6 has a relatively high 2OG Kmapp , the JMJD6 SPE–MS inhibition assay employs a 2OG concentration which is relatively high compared to most other 2OG oxygenase SPE–MS assays, possibly more accurately reflecting cellular 2OG concentrations.^[ [59] ^, [60] ^] Likely saturating concentrations of LAA (100 µM) and FAS (2 µM) were used.
JMJD6 catalyzes oxidation of BRD4_511–550 to give multiple hydroxylation products,^[ [56] ^] an observation potentially complicating data analysis.
Isolated recombinant full‐length human JMJD6 with a N‐terminal His6‐tag was produced in Escherichia coli BL21 (DE3) cells and purified as reported.^[ [1] ^, [56] ^] […] Purified His6‐JMJD6 was stored at −78 °C; fresh aliquots were used for all JMJD6 assays.
DMSO and 2,4‐PDCA (final assay concentration: 500 µM) were used as negative and positive inhibition controls, respectively. Each reaction was performed in technical duplicates in adjacent wells of the assay plates.
Cosubstrate/cofactor stock solutions (L‐ascorbic acid, LAA: 50 mM in Milli‐Q Ultrapure grade water; 2‐oxoglutarate, 2OG: 20 mM in Milli‐Q Ultrapure grade water; ammonium iron(II) sulfate hexahydrate, FAS, (NH4)2Fe(SO4)2·6H2O: […] in 20 mM aqueous HCl diluted to 1 mM in Milli‐Q Ultrapure grade water) were freshly prepared from commercial solids (Sigma–Aldrich) on the day of the experiment. BRD4_511–550 ([…]) was synthesized by solid‐phase peptide synthesis and was purified by GL Biochem (Shanghai) Ltd (Shanghai, China). Stock solutions of BRD4_511–550 (10 mM in water) were stored at −20 °C.
The plates were centrifuged (1000 rpm, 5 s) and incubated for 15 min at ambient temperature. The substrate mixture (2 × final concentration), containing BRD4_511–550 (2 µM), LAA (200 µM), 2OG (200 µM), and FAS (4 µM) in Tris buffer (50 mM; pH 7.5), was then dispensed across the plates (25 µL per well) using the multidrop dispenser. The plates were centrifuged (1000 rpm, 5 s) and incubated for 20 min at ambient temperature. The enzyme reaction was then stopped by the addition of 10%v/v aqueous formic acid (5 μL per well) using a 16‐channel electronic pipette (ThermoFischer Scientific). The plates were then centrifuged (1000 rpm, 30 s) and analyzed by MS.
Assay samples were aspirated under vacuum for 0.4 s and then loaded onto a C4 SPE cartridge. After loading, the C4 SPE cartridge was washed with 0.1%v/v aqueous formic acid to remove nonvolatile buffer salts (5 s, 1.5 mL min^−1). BRD4_511–550 and the corresponding hydroxylated product peptides were eluted from the SPE cartridge with 0.1%v/v aqueous formic acid in 75/25v/v acetonitrile/water into the mass spectrometer (5 s, 1.6 mL min^−1); the SPE cartridge was subsequently re‐equilibrated with 0.1%v/v aqueous formic acid (1 s, 1.25 mL min^−1).
Peaks corresponding to the m/z + 5 charge states of BRD4_511–550 and the corresponding mono‐ and dihydroxylated product peptides were extracted from the ion chromatogram and integrated using RapidFire Integrator 4.3.0 (Agilent).
From the raw data, dose–response curves (normalized to the 2,4‐PDCA and DMSO controls) were obtained by nonlinear regression (GraphPad Prism 5), which were used to determine IC50 values.

[3] = system: JMJD6; set-up: method as in PMID 34581506; details: 10 µM JMJD6, 100 µM LUC7L2_267–278; ref [35]; read-out: reported IC50 (JMJD6, MALDI‐TOF MS) (converted); cited from earlier work
[4] = system: JMJD6; set-up: method as in PMID 33991627; details: substrate other than BRD4_511–550, 2OG 10 μM, JMJD6 10 µM; ref [33]; read-out: reported IC50 (JMJD6, Succinate‐Glo) (converted); cited from earlier work
[5] = system: PHD2; set-up: method as in PMID 39291299; details: isolated PHD2; ref [100]; cited from earlier work
[6] = system: JMJD6; set-up: method as in PMID 31637004; details: assay conditions not described; ref [20]; read-out: reported IC50 (JMJD6) (converted); cited from earlier work
[7] = system: JMJD6; set-up: method as in PMID 35969736; details: Succinate‐Glo and MALDI‐TOF assays; ref [31]; read-out: reported IC50 (JMJD6 lysine hydroxylation); cited from earlier work
[8] = system: JMJD6; set-up: method as in PMID 31857835; details: fluorescence‐based assay; ref [32]; read-out: reported IC50 (JMJD6‐catalyzed histone dimethylarginine N‐demethylation); cited from earlier work

| Compound | IC50 ([2]; read-out: IC50 (JMJD6, SPE–MS)) | IC50 [3] | further results |
| --- | --- | --- | --- |
| O=C(O)c1ccnc(C(=O)O)c1 [2,4‐PDCA, pyridine‐2,4‐dicarboxylic acid] | ~1.6 µM and 1.6 µM | ~13 µM and 13 µM | IC50 [1]: ~5.4 µM and 5.4 µM |
| O=C(N/N=C/c1c(O)ccc2ccccc12)c1ccncc1 [AS‐8351] | ~6.9 µM and 6.9 µM | – | – |
| O=C(O)Cc1csc(=NC(=O)CS(=O)(=O)Cc2ccc3ccccc3c2)n1O [BNS] | ~0.16 µM and 0.16 µM | – | – |
| CC(C)c1c(-c2ccccc2)[nH]c2c(C#N)cnn2c1=O [CPI‐455] | > 50 µM | – | – |
| O=C(O)CC(O)(CC(=O)O)C(=O)O [Citrate] | > 50 µM | 987 µM | – |
| O=C(O)CCC(=O)NO [Compound 1] | ~3.6 µM and 3.6 µM | 25 µM | – |
| Cn1ccc(-c2cc(C(=O)OCC(F)(F)F)ccn2)n1 [Compound 7p] | ~4.2 µM and 4.2 µM | – | IC50 [4]: 0.68 µM |
| Cn1ccc(-c2cc(C(=O)O)ccn2)n1 [Compound 10a] | ~0.07 µM and 0.07 µM | – | IC50 [4]: ~1.7 µM and 1.7 µM; fold more potent than Compound 7p in inhibiting JMJD6 ([2]; SPE–MS IC50 comparison): ≈ 60 fold; ligand efficiency (LE) ([2]; from JMJD6 SPE–MS potency): 0.67; fold less potent in Succinate‐Glo assay than in SPE–MS assay ([2]; reported Succinate‐Glo IC50 versus SPE–MS IC50): ≈ 25 fold |
| O=C(O)c1ccncc1NCc1ccco1 [Compound 34] | ~2.6 µM and 2.6 µM | – | – |
| CC(C)(NC(=O)c1c(O)c2ccccc2n(OCc2cscn2)c1=O)C(=O)O [Compound 48] | ~7.1 µM and 19 µM | – | – |
| CN(C)NC(=O)CCC(=O)O [Daminozide] | – | 94 µM | IC50 ([2]; IC50 (JMJD6, SPE–MS)): > 50 µM |
| O=C(O)CNC(=O)C1C(=O)N(C2CCCCC2)C(=O)N(C2CCCCC2)C1=O [Daprodustat] | – | 10 µM | IC50 ([2]; IC50 (JMJD6, SPE–MS)): ~28 µM and 28 µM |
| O=C(O)CNC(=O)c1c(O)c2ccccc2n(OCC2CC2)c1=O [Desidustat] | ~2.7 µM and 2.7 µM | – | IC50 [5]: 1.3 µM |
| O=C(O)CC[C@@H](O)C(=O)O [D‐2‐Hydroxyglutarate] | > 50 µM | 622 µM | – |
| O=c1c2ccccc2[se]n1-c1ccccc1 [Ebselen] | > 50 µM | – | – |
| O=C(O)CNC(=O)c1c(O)cc(CCc2ccccc2)n2ncnc12 [Enarodustat] | ~1.2 µM and 1.2 µM | – | IC50 [5]: 0.38 µM |
| O=C(O)/C=C/C(=O)O [Fumarate] | > 50 µM | 165 µM | – |
| O=C(O)CCNc1cc(N2CCc3ccccc3CC2)nc(-c2ccccn2)n1 [GSK‐J1] | > 50 µM | – | – |
| O=C(O)c1ccc(O)c2ncccc12 [IOX1] | ~6.4 µM and 6.4 µM | ~10 µM and 10 µM | – |
| O=C(O)CNC(=O)c1c(O)c2ccccc2n(Cc2ccccc2)c1=O [IOX2] | ~19 µM and 7.1 µM | – | – |
| O=C(NCC1CCC(C(F)(F)F)CC1)c1cnc(-n2cccn2)cc1O (stereo not drawn) [IOX5] | > 50 µM | – | – |

| Compound | IC50 ([2]; read-out: IC50 (JMJD6, SPE–MS)) | IC50 [3] | further results |
| --- | --- | --- | --- |
| O=C(O)/C=C/C(=O)N(O)CCCCNCc1ccc(COC(=O)Nc2cccc3ccccc23)cc1 [JMJD histone demethylase inhibitor III] | ~0.1 µM and 0.1 µM | – | – |
| O=C(O)c1cnn(-c2nc3cc(OC(F)(F)F)c(Cl)cc3[nH]2)c1 [JNJ‐42041935] | > 50 µM | – | – |
| CC(C)c1cc(C(=O)N2CC[C@@H](NC(=O)C3CC3)C2)[nH]n1 [KDM5A‐IN‐1] | > 50 µM | – | – |
| O=C(O)CC[C@H](O)C(=O)O [L‐2‐Hydroxyglutarate] | > 50 µM | 871 µM | – |
| COc1ccc(C(NC(=O)c2cnc(-c3cccnn3)nc2O)c2ccc(OC)cc2)cc1 [MK‐8617] | > 50 µM | – | – |
| CN(C)CCCNC(=O)c1ccc(-c2cc(O)c3ncccc3c2)cc1 [ML324] | ~1.4 µM and 1.4 µM | – | – |
| O=C(O)CC(O)C(=O)O (stereo not drawn) [Malate] | – | 5100 µM | IC50 ([2]; IC50 (JMJD6, SPE–MS)): > 50 µM |
| C/C(=C\C(=O)O)C(=O)O [Mesaconate] | > 50 µM | – | – |
| O=c1c(-n2ccnn2)c[nH]n1-c1cc(N2CCOCC2)ncn1 [Molidustat] | ~20 µM and 20 µM | 74 µM | – |
| O=C(O)C(=O)N[C@H](Cc1ccccc1)C(=O)O [NOFD, N‐oxalyl‐D‐phenylalanine] | > 50 µM | – | – |
| O=C(O)CNC(=O)C(=O)O [NOG, N‐oxalylglycine] | > 50 µM | 296 µM | – |
| O=C(O)CC(=O)C(=O)O [Oxaloacetate] | > 50 µM | 204 µM | – |
| CC(=O)C(=O)O [Pyruvate] | > 50 µM | 2380 µM | – |
| CN(c1ccccc1)c1ccc2c(c1)CCC[C@H]2CNc1cnccc1C(=O)O [QC6352] | ~2.8 µM and 2.8 µM | – | – |
| Cc1nc(C(=O)NCC(=O)O)c(O)c2ccc(Oc3ccccc3)cc12 [Roxadustat] | > 50 µM | 23 µM | – |
| Oc1ccnc(N/N=C/c2ccccc2O)n1 [SKLB325] | ~6.7 µM and 6.7 µM | – | IC50 [6]: 0.78 µM |
| O=C(O)CCC(=O)O [Succinate] | > 50 µM | 261 µM | – |
| O=C(O)CNC(=O)C1=C(O)CCN(Cc2ccc(Oc3ccc(Cl)cc3)nc2)C1=O [TP0463518] | ~1.1 µM and 1.1 µM | – | – |
| O=C(O)CNC(=O)c1ncc(-c2cccc(Cl)c2)cc1O [Vadadustat] | ~17 µM and 17 µM | 7 µM | – |
| Cc1ccc2oc(=O)c(-c3nc4cnccc4[nH]3)cc2c1 [WL12] | > 50 µM | – | IC50 [7]: > 100 µM; IC50 [8]: ~0.22 µM and 0.22 µM |
